In US20080039438A1, “1B-Methylcarbapenem Derivative and Process for the Preparation Thereof” (Korea Institute of Science and Technology, priority 2004, published 2008):
Values after ≈ are worked out from the molar mass of the structure shown.

Assays:
Type in all cases: cell-based
[1] = test system: Staphylococcus aureus SG511; assay: MIC against standard strains (agar dilution); settings: standard strain Staphylococcus aureus SG511, 37° C., 18 to 20 hours, read-out: Minimum Inhibitory Concentration (MIC)
[2] = test system: Staphylococcus aureus 285; assay: MIC against standard strains (agar dilution); settings: standard strain Staphylococcus aureus 285, 37° C., 18 to 20 hours, read-out: Minimum Inhibitory Concentration (MIC)
[3] = test system: Escherichia coli 078; assay: MIC against standard strains (agar dilution); settings: standard strain Escherichia coli 078, 37° C., 18 to 20 hours, read-out: Minimum Inhibitory Concentration (MIC)
[4] = test system: Escherichia coli DC 0; assay: MIC against standard strains (agar dilution); settings: DC0, standard strain Escherichia coli DC 0, 37° C., 18 to 20 hours, read-out: Minimum Inhibitory Concentration (MIC)
[5] = test system: Escherichia coli TEM; assay: MIC against standard strains (agar dilution); settings: standard strain Escherichia coli TEM, 37° C., 18 to 20 hours, read-out: Minimum Inhibitory Concentration (MIC)
[6] = test system: Pseudomonas aeruginosa 1592E; assay: MIC against standard strains (agar dilution); settings: standard strain Pseudomonas aeruginosa 1592E, 37° C., 18 to 20 hours, read-out: Minimum Inhibitory Concentration (MIC)
[7] = test system: Pseudomonas aeruginosa 1771; assay: MIC against standard strains (agar dilution); settings: standard strain Pseudomonas aeruginosa 1771, 37° C., 18 to 20 hours, read-out: Minimum Inhibitory Concentration (MIC)
[8] = test system: Pseudomonas aeruginosa 1771M; assay: MIC against standard strains (agar dilution); settings: read-out: Minimum Inhibitory Concentration (MIC)
[9] = test system: Klebsiella cxytoca 1082E; assay: MIC against standard strains (agar dilution); settings: standard strain Klebsiella cxytoca 1082E, 37° C., 18 to 20 hours, read-out: Minimum Inhibitory Concentration (MIC)
[10] = test system: Enterobacter cloacae P99; assay: MIC against standard strains (agar dilution); settings: standard strain Enterobacter cloacae P99, 37° C., 18 to 20 hours, read-out: Minimum Inhibitory Concentration (MIC)
[11] = test system: Methicillin-sensitive Staphylococcus aureus; assay: MIC against clinically isolated aerobic Gram-positive strains; settings: 33 strains
[12] = test system: Staphylococcus coagulase; assay: as above; settings: for MIC50 / MIC90: Staphylococcus; for MIC Range: clinically isolated Staphylococcus coagulase, 22 strains
[13] = test system: Streptococcus agalactiae; assay: as above; settings: 15 strains
[14] = test system: Streptococcus pneumoniae; assay: as above; settings: 22 strains
[15] = test system: Enterococcus faecalis; assay: as above; settings: 30 strains
[16] = test system: Moraxella catarrhalis; assay: MIC against clinically isolated aerobic Gram-negative strains; settings: 24 strains
[17] = test system: Haemophilus influenzae; assay: as above; settings: 24 strains
[18] = test system: Escherichia coli; assay: as above; settings: 30 strains
[19] = test system: Klebsiella oxytoca; assay: as above; settings: 15 strains
[20] = test system: Enterobacter cloacae; assay: as above; settings: 29 strains
[21] = test system: Serratia marcescens; assay: as above; settings: 14 strains
[22] = test system: Proteus vulgaris; assay: as above; settings: 15 strains
[23] = test system: Morganella morganii; assay: as above; settings: 15 strains
[24] = test system: Acinetobacter baumannii; assay: as above; settings: 30 strains
[25] = test system: Peptostreptococcus spp.; assay: MIC against clinically isolated anaerobic Gram-positive strains; settings: 27 strains
[26] = test system: Clostridium difficile; assay: as above; settings: 15 strains; for MIC50 / MIC90: Clostridioides difficile
Method: The in vitro antibacterial activities of the sodium 3-carboxylate compound of the present invention prepared in the above Example were measured against standard strains (Table 1), clinically isolated aerobic Gram-positive strains (Table 2), clinically isolated aerobic Gram-negative strains (Table 3), clinically isolated anaerobic Gram-positive strains (Table 4) and clinically isolated anaerobic Gram-negative strains (Table 5) using Gram-positive bacteria such as Streptococcus and Staphylococcus, Gram-negative bacteria such as Escherichia, Salmonella, Krebsiella and Enterobacter. Imipenem (IPM), meropenem (MPM) and ertapenem (EPM) were used as control groups.
The results are shown in Tables 1 to 5, and MIC50 and MIC90 represent the concentrations at which the test strain's growth was inhibited to the extents of 50% and 90%, respectively.

[27] = test system: Bacteroides thetaiotaomicron; assay: MIC against clinically isolated anaerobic Gram-negative strains; settings: for MIC50 / MIC90: Bacteroides thetaiotaomicron; for MIC Range: clinically isolated anaerobic Bacteroides thetaiotaomicron, 15 strains
[28] = test system: Bacteroides spp.; assay: as above; settings: 11 strains

C[C@@H](O)[C@H]1C(=O)N2C(C(=O)O)=C(SCCN=CN)C[C@H]12 [IPM, Imipenem]
MIC [1]: 0.013 µg/mL (≈ 0.0434 µM)
MIC [2]: 0.013 µg/mL (≈ 0.0434 µM)
MIC [3]: 0.098 µg/mL (≈ 0.327 µM)
MIC [4]: 0.195 µg/mL (≈ 0.651 µM)
MIC [5]: 0.098 µg/mL (≈ 0.327 µM)
MIC [6]: 0.781 µg/mL (≈ 2.61 µM)
MIC [7]: 0.781 µg/mL (≈ 2.61 µM)
MIC [8]: 0.195 µg/mL (≈ 0.651 µM)
MIC [9]: 0.195 µg/mL (≈ 0.651 µM)
MIC [10]: 0.098 µg/mL (≈ 0.327 µM)
MIC50 [11]: 0.015 µg/mL (≈ 0.0501 µM)
MIC90 [11]: 0.03 µg/mL (≈ 0.1 µM)
MIC Range [11]: 0.015 to 0.06 µg/mL
MIC50 [12]: 0.015 µg/mL (≈ 0.0501 µM)
MIC90 [12]: 0.015 µg/mL (≈ 0.0501 µM)
MIC Range [12]: 0.008 to 0.03 µg/mL
MIC50 [13]: 0.008 µg/mL (≈ 0.0267 µM)
MIC90 [13]: 0.015 µg/mL (≈ 0.0501 µM)
MIC Range [13]: 0.008 to 0.015 µg/mL
MIC50 [14]: 0.12 µg/mL (≈ 0.401 µM)
MIC90 [14]: 0.25 µg/mL (≈ 0.835 µM)
MIC Range [14]: 0.008 to 0.5 µg/mL
MIC50 [15]: 1 µg/mL (≈ 3.34 µM)
MIC90 [15]: 4 µg/mL (≈ 13.4 µM)
MIC Range [15]: 0.5 to 4 µg/mL
MIC50 [16]: 0.06 µg/mL (≈ 0.2 µM)
MIC90 [16]: 0.06 µg/mL (≈ 0.2 µM)
MIC Range [16]: 0.008 to 0.25 µg/mL
MIC50 [17]: 1 µg/mL (≈ 3.34 µM)
MIC90 [17]: 4 µg/mL (≈ 13.4 µM)
MIC Range [17]: 0.25 to 8 µg/mL
MIC50 [18]: 0.12 µg/mL (≈ 0.401 µM)
MIC90 [18]: 0.5 µg/mL (≈ 1.67 µM)
MIC Range [18]: 0.06 to 1 µg/mL
MIC50 [19]: 0.12 µg/mL (≈ 0.401 µM)
MIC90 [19]: 0.5 µg/mL (≈ 1.67 µM)
MIC Range [19]: 0.06 to 0.5 µg/mL
MIC50 [20]: 0.25 µg/mL (≈ 0.835 µM)
MIC90 [20]: 1 µg/mL (≈ 3.34 µM)
MIC Range [20]: 0.12 to 1 µg/mL
MIC50 [21]: 0.25 µg/mL (≈ 0.835 µM)
MIC90 [21]: 2 µg/mL (≈ 6.68 µM)
MIC Range [21]: 0.12 to 4 µg/mL
MIC50 [22]: 1 µg/mL (≈ 3.34 µM)
MIC90 [22]: 2 µg/mL (≈ 6.68 µM)
MIC Range [22]: 0.25 to 2 µg/mL
MIC50 [23]: 1 µg/mL (≈ 3.34 µM)
MIC90 [23]: 2 µg/mL (≈ 6.68 µM)
MIC Range [23]: 0.5 to 2 µg/mL
MIC50 [24]: 1 µg/mL (≈ 3.34 µM)
MIC90 [24]: 8 µg/mL (≈ 26.7 µM)
MIC Range [24]: 0.25 to 32 µg/mL
MIC50 [25]: 0.06 µg/mL (≈ 0.2 µM)
MIC90 [25]: 2 µg/mL (≈ 6.68 µM)
MIC Range [25]: 0.06 to 2 µg/mL
MIC Range [26]: 4 to 16 µg/mL
MIC50 [26]: 8 µg/mL (≈ 26.7 µM)
MIC90 [26]: 8 µg/mL (≈ 26.7 µM)
MIC50 [27]: 0.5 µg/mL (≈ 1.67 µM)
MIC90 [27]: 4 µg/mL (≈ 13.4 µM)
MIC Range [27]: 0.12 to 16 µg/mL
MIC50 [28]: 0.5 µg/mL (≈ 1.67 µM)
MIC90 [28]: 1 µg/mL (≈ 3.34 µM)
MIC Range [28]: 0.25 to 2 µg/mL

C[C@@H](O)[C@H]1C(=O)N2C(C(=O)O)=C(S[C@@H]3CN[C@H](C(=O)N(C)C)C3)[C@H](C)[C@H]12 [MPM, meropenem]
MIC [1]: 0.098 µg/mL (≈ 0.256 µM)
MIC [2]: 0.195 µg/mL (≈ 0.509 µM)
MIC [3]: 0.025 µg/mL (≈ 0.0652 µM)
MIC [4]: 0.025 µg/mL (≈ 0.0652 µM)
MIC [5]: 0.025 µg/mL (≈ 0.0652 µM)
MIC [6]: 0.098 µg/mL (≈ 0.256 µM)
MIC [7]: 0.391 µg/mL (≈ 1.02 µM)
MIC [8]: 0.098 µg/mL (≈ 0.256 µM)
MIC [9]: 0.049 µg/mL (≈ 0.128 µM)
MIC [10]: 0.049 µg/mL (≈ 0.128 µM)
MIC50 [11]: 0.12 µg/mL (≈ 0.313 µM)
MIC90 [11]: 0.12 µg/mL (≈ 0.313 µM)
MIC Range [11]: 0.06 to 0.25 µg/mL
MIC50 [12]: 0.06 µg/mL (≈ 0.156 µM)
MIC90 [12]: 0.12 µg/mL (≈ 0.313 µM)
MIC Range [12]: 0.03 to 0.5 µg/mL
MIC50 [13]: 0.03 µg/mL (≈ 0.0782 µM)
MIC90 [13]: 0.03 µg/mL (≈ 0.0782 µM)
MIC Range [13]: 0.03 µg/mL (≈ 0.0782 µM)
MIC50 [14]: 0.5 µg/mL (≈ 1.3 µM)
MIC90 [14]: 0.5 µg/mL (≈ 1.3 µM)
MIC Range [14]: 0.008 to 0.5 µg/mL
MIC50 [15]: 4 µg/mL (≈ 10.4 µM)
MIC90 [15]: 16 µg/mL (≈ 41.7 µM)
MIC Range [15]: 2 to 16 µg/mL
MIC50 [16]: 0.008 µg/mL (≈ 0.0209 µM)
MIC90 [16]: 0.008 µg/mL (≈ 0.0209 µM)
MIC Range [16]: 0.008 to 0.03 µg/mL
MIC50 [17]: 0.25 µg/mL (≈ 0.652 µM)
MIC90 [17]: 1 µg/mL (≈ 2.61 µM)
MIC Range [17]: 0.06 to 1 µg/mL
MIC50 [18]: 0.015 µg/mL (≈ 0.0391 µM)
MIC90 [18]: 0.03 µg/mL (≈ 0.0782 µM)
MIC Range [18]: 0.008 to 0.5 µg/mL
MIC50 [19]: 0.03 µg/mL (≈ 0.0782 µM)
MIC90 [19]: 0.03 µg/mL (≈ 0.0782 µM)
MIC Range [19]: 0.015 to 0.06 µg/mL
MIC50 [20]: 0.03 µg/mL (≈ 0.0782 µM)
MIC90 [20]: 0.25 µg/mL (≈ 0.652 µM)
MIC Range [20]: 0.015 to 0.5 µg/mL
MIC50 [21]: 0.03 µg/mL (≈ 0.0782 µM)
MIC90 [21]: 8 µg/mL (≈ 20.9 µM)
MIC Range [21]: 0.03 to 8 µg/mL
MIC50 [22]: 0.06 µg/mL (≈ 0.156 µM)
MIC90 [22]: 0.06 µg/mL (≈ 0.156 µM)
MIC Range [22]: 0.03 to 0.06 µg/mL
MIC50 [23]: 0.06 µg/mL (≈ 0.156 µM)
MIC90 [23]: 0.12 µg/mL (≈ 0.313 µM)
MIC Range [23]: 0.03 to 0.12 µg/mL
MIC50 [24]: 1 µg/mL (≈ 2.61 µM)
MIC90 [24]: 8 µg/mL (≈ 20.9 µM)
MIC Range [24]: 0.25 to 64 µg/mL
MIC50 [25]: 0.06 µg/mL (≈ 0.156 µM)
MIC90 [25]: 4 µg/mL (≈ 10.4 µM)
MIC Range [25]: 0.06 to 4 µg/mL
MIC Range [26]: 1 to 2 µg/mL
MIC50 [26]: 1 µg/mL (≈ 2.61 µM)
MIC90 [26]: 2 µg/mL (≈ 5.22 µM)
MIC50 [27]: 0.25 µg/mL (≈ 0.652 µM)
MIC90 [27]: 0.5 µg/mL (≈ 1.3 µM)
MIC Range [27]: 0.25 to 2 µg/mL
MIC50 [28]: 0.5 µg/mL (≈ 1.3 µM)
MIC90 [28]: 0.5 µg/mL (≈ 1.3 µM)
MIC Range [28]: 0.12 to 0.5 µg/mL
